Several values for one entry are separate records, joined by “and”; a condition that tells them apart may be missing. Equal entries are not always repeated.
Test system: GK rats
Assay: GK rat chronic efficacy (28 days: glucose, food intake, body weight, GLP-1, GIP, PYY, insulin, glucagon)
Type: in vivo
Set-up: Food Intake Over Time (Fig 3C) / Total Body Weight Change Over Time / Active GLP-1 Levels Over Time: unit not given here
Settings: for Total Body Weight Change Over Time / Active GLP-1 Levels Over Time / GIP Levels Over Time / PYY Levels Over Time / Plasma Insulin Over Time: GK rats
Outline: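 Daily oral gavage for 28 days, AP1 or AP3 at 30 mg/kg in 0.5% methylcellulose; MK-8666 at 30 mg/kg in feed. Fed glucose, food intake and weight on days 10, 17, 23, 28; glucose, GLP-1, GIP, PYY after 6 h fast, 1 h post dose. Hormones by MSD immunoassay or bead panel.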

[1] = 30 mpk, Day 0, individual animals (Fig 3D)
[2] = 30 mpk, Day 0, individual animals (Fig 4B), 30 mg/kg
[3] = 30 mpk, Day 0, individual animals (Fig 4D), 30 mg/kg, in pg/mL (unit assumed)
[4] = 30 mpk, Day 0, individual animals (Fig 5A), 30 mg/kg
[5] = 30 mpk, Day 10, individual animals (Fig 3D), 30 mg/kg
[6] = 30 mpk, Day 10, individual animals (Fig 4B), 30 mg/kg
[7] = 30 mpk, Day 10, individual animals (Fig 4C), 30 mg/kg, in pg/mL (unit assumed)
[8] = 30 mpk, Day 10, individual animals (Fig 4D), 30 mg/kg, in pg/mL (unit assumed)
[9] = 30 mpk, Day 10, individual animals (Fig 5A), 30 mg/kg
[10] = 30 mpk, Day 17, individual animals (Fig 3D), 30 mg/kg
[11] = 30 mpk, Day 17, individual animals (Fig 4B), 30 mg/kg
[12] = 30 mpk, Day 17, individual animals (Fig 4C), 30 mg/kg, in pg/mL (unit assumed)
[13] = 30 mpk, Day 17, individual animals (Fig 4D), 30 mg/kg, in pg/mL (unit assumed)
[14] = 30 mpk, Day 17, individual animals (Fig 5A), 30 mg/kg
[15] = 30 mpk, Day 23, individual animals (Fig 3D), 30 mg/kg
[16] = 30 mpk, Day 28, individual animals (Fig 3D), 30 mg/kg
[17] = 30 mpk, Day 28, individual animals (Fig 4B), 30 mg/kg
[18] = 30 mpk, Day 28, individual animals (Fig 4C), 30 mg/kg, in pg/mL (unit assumed)
[19] = 30 mpk, Day 28, individual animals (Fig 4D), 30 mg/kg, in pg/mL (unit assumed)
[20] = 30 mpk, Day 28, individual animals (Fig 5A), 30 mg/kg

| SMILES | Food Intake Over Time (Fig 3C) (30 mpk, Day 10) | Food Intake Over Time (Fig 3C) (30 mpk, Day 17) | Food Intake Over Time (Fig 3C) (30 mpk, Day 23) | Food Intake Over Time (Fig 3C) (30 mpk, Day 28) | Total Body Weight Change Over Time [1] | Active GLP-1 Levels Over Time [2] | PYY Levels Over Time [3] | Plasma Insulin Over Time [4] | Total Body Weight Change Over Time [5] | Active GLP-1 Levels Over Time [6] | GIP Levels Over Time [7] | PYY Levels Over Time [8] | Plasma Insulin Over Time [9] | Total Body Weight Change Over Time [10] | Active GLP-1 Levels Over Time [11] | GIP Levels Over Time [12] | PYY Levels Over Time [13] | Plasma Insulin Over Time [14] | Total Body Weight Change Over Time [15] | Total Body Weight Change Over Time [16] | further results |
| --- | --- | --- | --- | --- | --- | --- | --- | --- | --- | --- | --- | --- | --- | --- | --- | --- | --- | --- | --- | --- | --- |
| C[C@H](C(=O)O)[C@H](c1ccc2c(c1)O[C@H](C1CN(Cc3cc(C(F)(F)F)ccc3C(F)(F)F)C1)CC2)C1CC1 [AP3] | 15.815 and 14.78 and 14.855 and 15.07 and 14.37 | 16.6286 and 16.6643 and 16.8143 and 16.8286 and 16.8071 | 18.5083 and 18.3917 and 17.85 and 19.125 and 17.525 | 17.91 and 18.83 and 18.78 and 18.96 and 19.28 | 0 | 1.077 and 2.563 and 1.567 and 0.8713 and 1.148 and 1.431 and 1.186 and 1.3237 and 1.438 and 1.6108 | 45.68 and 75.54 and 74.62 and 61.64 and 36.39 and 74.15 and 136.82 and 43.52 and 46.38 and 67.65 | 1.29 ng/mL and 1.017 ng/mL and 1.844 ng/mL and 1.516 ng/mL and 2.832 ng/mL and 2.437 ng/mL and 2.602 ng/mL and 2.286 ng/mL and 2.384 ng/mL and 3.155 ng/mL | 11 and 17 and 1 (4×) and 8 and 2 and -5 and -10 | 10.2264 and 10.1136 and 9.093 and 7.341 and 9.911 and 6.136 and 9.947 and 8.858 and 9.564 and 4.836 | 131.59 and 538.63 and 268.56 and 356.56 and 280.21 and 297.28 and 251.81 and 343.6 and 366.22 and 226.85 | 327.63 and 434.04 and 220.17 and 263.06 and 264.64 and 198.53 and 67.33 and 282.5 and 263.78 and 239.29 | 0.805 ng/mL and 1.032 ng/mL and 1.336 ng/mL and 1.205 ng/mL and 1.609 ng/mL and 1.271 ng/mL and 0.3056 ng/mL and 1.028 ng/mL and 1.285 ng/mL and 1.24 ng/mL | 17 and 22 and 6 (2×) and 19 and 5 and 10 and 7 and 3 and 4 | 8.7 and 6.18 and 9.28 and 4.41 and 6.22 and 9.2 and 7.03 and 4.78 and 4.82 and 5.22 | 453.42 and 366.18 and 475.48 and 267.46 and 451.8 and 353.69 and 400.36 and 407.49 and 350.93 | 179 and 263.66 and 236.63 and 203.98 and 272.19 and 278.33 and 130.51 and 189.28 and 188.49 | 0.5609 ng/mL and 0.9183 ng/mL and 0.2807 ng/mL and 1.641 ng/mL and 1.961 ng/mL and 1.708 ng/mL and 1.453 ng/mL and 0.6985 ng/mL and 1.1926 ng/mL and 1.855 ng/mL | 28 and 34 and 22 and 15 and 18 and 7 and 14 and 17 and 6 and 4 | 30 and 36 and 25 and 20 and 21 and 10 and 19 and 22 and 14 (2×) | GIP Levels Over Time (30 mpk, Day 0, individual animals (Fig 4C), 30 mg/kg): 64.6 and 61.42 and 49.69 and 65.31 and 46.23 (2×) and 37.69 and 48.72 and 40.59 and 29.52; Active GLP-1 Levels Over Time [17]: 7.945 and 6.4879 and 5.324 and 10.6145 and 8.6355 and 6.965 and 4.915 and 7.012 and 6.997 and 8.043; GIP Levels Over Time [18]: 257.43 and 223.283 and 216.92 and 196.33 and 188.58 and 171.99 and 248.64 and 189.72 and 162.6 and 177.95; PYY Levels Over Time [19]: 237.97 and 76.0833 and 195.93 and 219.09 and 189.97 and 176.63 and 223.29 and 158.15 and 160.92 and 153.75; Plasma Insulin Over Time [20]: 0.8153 ng/mL and 0.3115 ng/mL and 0.9427 ng/mL and 0.8881 ng/mL and 1.431 ng/mL and 0.8809 ng/mL and 1.428 ng/mL and 1.376 ng/mL and 1.352 ng/mL and 1.27 ng/mL |
| Cc1cc(OCCCS(C)(=O)=O)cc(C)c1-c1cccc(COc2cc3c(cn2)[C@H]2[C@@H](C3)[C@@H]2C(=O)O)c1 [MK-8666] | 20.6389 and 19.3556 and 19.3778 and 21 and 18.9 | 18.0071 and 18.5429 and 17.1786 and 18.0357 and 16.8714 | 18.6833 and 18.8833 and 18.4167 and 19.5083 and 18.1917 | 18.66 and 18.67 and 17.38 and 21.2 and 17.95 | 0 | 1.901 and 1.26 and 2.116 and 3.51 and 2.184 and 0.8674 and 1.257 and 2.71 and 1.494 and 1.111 | 104.9 and 81.92 and 88.3 and 95.99 and 52.32 and 50.41 and 79.99 and 158.3 and 57.72 and 25.52 | 0.7825 ng/mL and 1.015 ng/mL and 2.348 ng/mL and 1.621 ng/mL and 2.16 ng/mL and 2.5584 ng/mL and 2.141 ng/mL and 1.201 ng/mL and 2.632 ng/mL and 2.493 ng/mL | 20 and 26 and 18 and 13 and 22 and 3 and 11 and 21 and 12 and 4 | 1.599 and 1.212 and 2.275 and 1.828 and 2.945 and 2.154 and 1.327 and 1.669 and 1.343 and 1.536 | 39.32 and 74.04 and 79.4 and 80.59 and 90.86 and 47.57 and 50.25 and 47.43 and 58.38 and 34.5 | 68.18 and 84.22 and 84.94 and 98.89 and 97.3 and 93.71 and 80.17 and 75.96 and 87.42 and 74.37 | 1.605 ng/mL and 1.432 ng/mL and 1.588 ng/mL and 2.061 ng/mL and 1.507 ng/mL and 2.521 ng/mL and 2.104 ng/mL and 0.5711 ng/mL and 1.866 ng/mL and 2.359 ng/mL | 34 (2×) and 41 and 29 and 32 (2×) and 11 and 22 (2×) and 9 | 0.86 and 0.3 and 1.09 and 0.6 and 0.76 and 1.16 and 0.79 and 0.57 (2×) and 1.44 | 72.64 and 104.54 and 131.52 and 71.84 and 86.95 and 58.88 and 85.41 and 17.08 and 86.39 and 75.71 | 84.67 and 106.51 and 99.04 and 75.86 and 81.98 and 124.9 and 74.42 and 49.36 and 77.72 and 64.96 | 2.096 ng/mL and 1.971 ng/mL and 2.299 ng/mL and 1.835 ng/mL and 1.8388 ng/mL and 1.142 ng/mL and 2.593 ng/mL and 0.8411 ng/mL and 2.087 ng/mL and 1.846 ng/mL | 40 and 50 and 44 and 31 (2×) and 12 and 29 and 38 and 27 and 17 | 42 (2×) and 59 and 53 and 39 and 16 and 38 and 47 and 36 and 23 | Glucose Over time (S2 File, Fig 2A) (30 mpk, Day 0, individual animals): 167 mg/dL and 165 mg/dL and 192 mg/dL and 168 mg/dL and 160 mg/dL and 197 mg/dL and 172 mg/dL and 183 mg/dL and 169 mg/dL and 161 mg/dL; Glucose Over time (S2 File, Fig 2A) (30 mpk, Day 10, individual animals): 128 mg/dl and 123 mg/dl and 142 mg/dl and 120 mg/dl and 139 mg/dl (2×) and 127 mg/dl and 130 mg/dl and 140 mg/dl and 115 mg/dl; Glucose Over time (S2 File, Fig 2A) (30 mpk, Day 17, individual animals): 130 mg/dL and 155 mg/dL and 159 mg/dL and 140 mg/dL and 132 mg/dL and 137 mg/dL and 120 mg/dL and 138 mg/dL and 110 mg/dL and 102 mg/dL; Glucose Over time (S2 File, Fig 2A) (30 mpk, Day 23, individual animals): 129 mg/dL and 132 mg/dL and 148 mg/dL and 138 mg/dL and 131 mg/dL and 124 mg/dL and 143 mg/dL and 144 mg/dL and 119 mg/dL and 122 mg/dL; Glucose Over time (S2 File, Fig 2A) (30 mpk, Day 28, individual animals): 130 mg/dL and 128 mg/dL and 147 mg/dL and 122 mg/dL and 143 mg/dL and 136 mg/dL and 123 mg/dL and 135 mg/dL and 131 mg/dL and 116 mg/dL; Fasted glucose on day 28 (Fig 3B) (30 mpk, day 28, fasted, individual animals): 119 and 118 and 107 and 100 and 94 and 104 and 124 and 102 and 96 and 105; Fed glucose on day 28 (Fig 3B) (30 mpk, day 28, fed, individual animals): 123 and 135 and 131 and 116 and 130 and 128 and 147 and 122 and 143 and 136; gut hormones (total and active GLP-1, GIP, PYY) (GK rat, 30 mg/kg, 4 weeks of treatment): no effect; Plasma Glucagon (GK rat, 30 mg/kg, 28 days): trend of increasing glucagon on day 28; body weight (GK rat, 30 mg/kg, 28 days): no effect; fed blood glucose vs vehicle controls (GK rat, 30 mg/kg, 28 days, days 10–28): significant effect on day 28 only; GIP Levels Over Time (30 mpk, Day 0, individual animals (Fig 4C), 30 mg/kg, in pg/mL (unit assumed)): 12.65 and 5.7 and 68.06 and 68.73 and 44.75 and 71.88 and 53.28 and 113.97 and 32.85 and 33.08; Active GLP-1 Levels Over Time [17]: 1.155 and 1.013 and 1.22 and 0.9448 and 0.9241 and 0.9389 and 0.7791 and 1.439 and 1.063 and 0.9152; GIP Levels Over Time [18]: 17.53 and 7.25 and 46.24 and 76.52 and 12.03 and 22.4 and 15.13 and 16.8 and 5.84; PYY Levels Over Time [19]: 66.63 and 94.86 and 108.27 and 72.37 and 63.96 and 49.91 and 49.72 and 83.74 and 62.98 and 45.13; Plasma Insulin Over Time [20]: 1.012 ng/mL and 1.26 ng/mL and 1.45 ng/mL and 2.851 ng/mL and 1.138 ng/mL and 1.638 ng/mL and 1.554 ng/mL and 1.1554 ng/mL and 1.58 ng/mL and 1.305 ng/mL |

From PMC5650142, “GPR40 partial agonists and AgoPAMs: Differentiating effects on glucose and hormonal secretions in the rodent” (PLoS ONE, 2017)
